In patent US20110305637A1, “RADIOLABELLED PDE10 LIGANDS” (Janssen Pharmaceutica N.V., priority 2009, published 2011):

Key:
[1] = target: T1, rat PDE10A2 (Rattus norvegicus, UniProt Q9QYJ6); test: rat PDE10A2-cAMP inhibition; format: biochemical; conditions: read-out: pIC50, rat PDE10A2-cAMP inhibition (converted)
T1 sequence (Q9QYJ6 1-794): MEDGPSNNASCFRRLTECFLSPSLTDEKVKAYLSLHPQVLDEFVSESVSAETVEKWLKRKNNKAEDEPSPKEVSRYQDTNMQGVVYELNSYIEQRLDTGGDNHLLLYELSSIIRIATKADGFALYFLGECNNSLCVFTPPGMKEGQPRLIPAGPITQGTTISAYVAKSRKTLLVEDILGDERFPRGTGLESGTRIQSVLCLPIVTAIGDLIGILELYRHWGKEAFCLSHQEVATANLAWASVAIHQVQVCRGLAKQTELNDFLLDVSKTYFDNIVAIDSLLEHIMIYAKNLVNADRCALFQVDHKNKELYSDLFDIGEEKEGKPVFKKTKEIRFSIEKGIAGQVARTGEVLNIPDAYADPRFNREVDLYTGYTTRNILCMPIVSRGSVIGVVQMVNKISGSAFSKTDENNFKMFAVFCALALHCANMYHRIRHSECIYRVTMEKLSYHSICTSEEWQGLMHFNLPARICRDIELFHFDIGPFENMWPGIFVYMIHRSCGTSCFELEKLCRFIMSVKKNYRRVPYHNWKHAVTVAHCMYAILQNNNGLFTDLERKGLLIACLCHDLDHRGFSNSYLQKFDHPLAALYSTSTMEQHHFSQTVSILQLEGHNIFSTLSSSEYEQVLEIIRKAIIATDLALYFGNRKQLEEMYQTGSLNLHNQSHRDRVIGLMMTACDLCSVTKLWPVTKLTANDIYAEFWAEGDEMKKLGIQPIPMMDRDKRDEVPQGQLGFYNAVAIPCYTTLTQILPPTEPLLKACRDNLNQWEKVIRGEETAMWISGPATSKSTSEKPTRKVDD
Procedure: The affinity of compounds Ia and Ib was determined by measuring rat PDE10A2-cAMP inhibition: […]

[2] = target: PDE8A1 (Homo sapiens, UniProt O60658); test: selectivity over PDE8A1; format: biochemical
Chain of PDE8A1 (O60658 whole entry, species assumed): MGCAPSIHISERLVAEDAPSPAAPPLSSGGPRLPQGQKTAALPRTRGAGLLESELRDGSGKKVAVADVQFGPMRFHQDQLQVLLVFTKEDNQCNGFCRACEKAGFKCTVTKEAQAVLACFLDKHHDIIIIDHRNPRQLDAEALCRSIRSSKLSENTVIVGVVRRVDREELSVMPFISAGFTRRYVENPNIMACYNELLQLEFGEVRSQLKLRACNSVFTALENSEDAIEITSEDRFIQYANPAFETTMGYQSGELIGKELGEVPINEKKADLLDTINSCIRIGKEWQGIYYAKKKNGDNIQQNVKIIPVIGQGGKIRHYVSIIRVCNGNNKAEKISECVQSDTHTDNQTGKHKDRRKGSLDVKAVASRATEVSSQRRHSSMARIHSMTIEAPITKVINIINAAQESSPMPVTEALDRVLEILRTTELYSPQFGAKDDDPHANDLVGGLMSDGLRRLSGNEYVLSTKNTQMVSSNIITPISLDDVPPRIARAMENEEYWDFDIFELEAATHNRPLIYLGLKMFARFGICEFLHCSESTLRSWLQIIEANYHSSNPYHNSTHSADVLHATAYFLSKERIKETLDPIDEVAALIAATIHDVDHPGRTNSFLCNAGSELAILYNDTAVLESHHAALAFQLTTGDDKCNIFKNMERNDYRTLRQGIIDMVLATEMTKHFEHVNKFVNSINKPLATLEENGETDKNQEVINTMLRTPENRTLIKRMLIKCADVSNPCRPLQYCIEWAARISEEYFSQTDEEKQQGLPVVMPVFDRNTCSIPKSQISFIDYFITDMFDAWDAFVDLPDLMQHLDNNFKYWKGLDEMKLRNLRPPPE

| Compound | IC50 [1] | melting point | selective over PDE8A1 [2] |
| --- | --- | --- | --- |
| FCCn1cc(-c2ccncc2)c(-c2ccc(OCc3ccc4ccccc4n3)cc2)n1 [Ia, 2-{4-[1-(2-Fluoroethyl)-4-pyridin-4-yl-1H-1-pyrazol-3-yl]-phenoxymethyl}-quinoline] | 0.479 nM | – | – |
| FCCCn1cc(-c2ccncc2)c(-c2ccc(OCc3ccc4ccccc4n3)cc2)n1 [Ib, 2-{4-[1-(3-Fluoropropyl)-4-pyridin-4-yl-1H-1-pyrazol-3-yl]-phenoxymethyl}-quinoline] | 0.692 nM | 101.9 °C | > 200 fold |
